# Experimental data from patent US7488844B2, “Therapeutic agents” (AstraZeneca AB, priority 2001, dated 2009).
# Molecular target: T1, PPARγ (Homo sapiens, UniProt P37231)
# T1 construct: expressed in transfected cells; host or cells: U2-OS (human osteogenic sarcoma), transient electroporation
# T1 sequence (P37231 238-503 limits assumed): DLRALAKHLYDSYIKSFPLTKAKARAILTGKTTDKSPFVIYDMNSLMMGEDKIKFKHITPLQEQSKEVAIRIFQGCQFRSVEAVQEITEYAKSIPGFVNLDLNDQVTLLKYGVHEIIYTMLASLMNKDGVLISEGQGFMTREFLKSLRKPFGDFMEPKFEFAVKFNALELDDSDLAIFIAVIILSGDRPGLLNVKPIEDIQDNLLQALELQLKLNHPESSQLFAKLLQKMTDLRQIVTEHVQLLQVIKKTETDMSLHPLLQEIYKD
# Experiment: GAL4-PPARγ ligand binding domain luciferase reporter transactivation in transiently transfected U2-OS cells
# Assay type: cell-based
# Conditions: selectivity PPARα over PPARγ
# Procedure: The compounds of Examples 5-9 were tested in the assays described in WO03/051821.
# Compounds were dissolved in DMSO to obtain 16 mM stock solutions. Before assays, stock solutions were further diluted in DMSO and culture media.
# U2-OS, (Osteogenic sarcoma, Human) was purchased from ATCC, USA. Cells were expanded and refrozen in batches from passage number six. Cells were cultured in Dulbecco's modified Eagle medium (DMEM) with 25 mM glucose, 2 mM glutamin or 4 mM L-alanyl-L-glutamine, 10% fetal calf serum, at 5% CO2. Phosphate buffered saline (PBS) without addition of calcium or magnesium was used. All cell culture reagents were from Gibco (USA) and 96-well cell culture plates were purchased from Wallah.
# Standard recombinant DNA techniques were carried out as described by Ausubel (7). The Luciferase reporter vector, pGL5UAS (clone consists of five copies of the GAL4 DNA binding sequence, 5′-[…]-3′, cloned into the SacI/XhoI sites of pGL3-Promoter (Promega). The SacI/XhoI fragment carrying the UAS sites was constructed using annealed overlapping oligonucleotides.
# Expression vectors used are based upon pSG5 (Stratagene). All vectors contain an EcoRI/NheI fragment encoding the DNA binding domain of GAL4 (encoding amino acid positions 1-145 of database accession number P04386) followed by an in-frame fusion to a fragment encoding the nuclear localisation sequence from T antigen of Polyoma Virus.
# The nuclear localisation sequence was constructed using annealed overlapping oligonucleotides creating NheI/KpnI sticky ends(5′-[…]-3′). The ligand binding domains from human and mouse PPARa and human and mouse PPARy were PCR amplified as KpnI/BamHI fragments and cloned in frame to the GAL4 DNA binding domain and the nuclear localisation sequence. The sequence of all plasmid constructs used were confirmed by sequencing. The following expression vectors were used for transient transfections:
# Frozen stocks of cells from passage number six were thawed and expanded to passage number eight before transfections. […]
row,ratio EC50 (PPARγ): EC50 (PPARα),Structure (SMILES)
1,>900,"CCO[C@@H](Cc1ccc(OCC(=O)N(Cc2ccc(C(F)(F)F)cc2)Cc2ccc(C(F)(F)F)cc2)cc1)C(=O)O [Example 25, (2S)-3-[4-(2-{bis[4-(Trifluoromethyl)benzyl]amino}-2-oxoethoxy)phenyl]-2-ethoxypropanoic acid]"
2,>1000,"CCO[C@@H](Cc1ccc(OCC(=O)N(Cc2ccc(Cl)cc2)Cc2ccc(Cl)cc2)cc1)C(=O)O [Example 22, (2S)-3-(4-{2-[bis(4-Chlorobenzyl)amino]-2-oxoethoxy}phenyl)-2-ethoxypropanoic acid]"
3,>400,"CCO[C@@H](Cc1ccc(OCC(=O)N(Cc2ccc(Cl)cc2)Cc2ccc(C(C)(C)C)cc2)cc1)C(=O)O [Example 23, (2S)-3-(4-{2-[(4-tert-Butylbenzyl)(4-chlorobenzyl)amino]-2-oxoethoxy}phenyl)-2-ethoxypropanoic acid]"
